Laboratory results: paper PMC11413854, “Reversible Control of Native GluN2B-Containing NMDA Receptors with Visible Light” (ACS Chemical Neuroscience, 2024)
Where “and” joins values, the source holds several entries; their conditions need not be identical. Identical values can stand only once. Like-named read-outs stand apart in the source and are kept apart here.

Target: T1, GluA1 AMPA receptors (Rattus norvegicus, UniProt P19490)
T1 construct: expressed in transfected cells; host or cells: Xenopus laevis oocytes (mRNA injection)
Assay: TEVC on Xenopus oocytes, GluA1 AMPA receptors
Assay type: cell-based
Details: for Inhibition, individual values: GluA1, single cells
From the text: We used cDNA coding for rat GluN1–1a (named GluN1 herein) (GenBank: U08261.1), rat GluN2A (GenBank: D13211.1), mouse GluN2B (GenBank: D10651.2), rat GluA1 flop (GenBank: M36418.2), and rat Myc-GluA2(Q)-flip (GenBank: AF164344.1) cloned into pcDNA3-based expression plasmids. GluK2 (GenBank: Z11548.1) corresponds to the fully RNA-edited version.[80] The GluN2B-ΔNTD construct is from ref[45] and GluN2B–N615K is from ref[81]. Single mutants GluN2B-Q110G and GluN1-L135H were from ref[19]. The GluA2 cDNA contains a Myc tag ([…]) fused between the signal peptide and the N-terminus sequences, and the GluA2 subunit is […] for its Q/R/N site (GluA2(Q)) to allow permeation of homomeric GluA2 receptors.[2] cDNAs coding for rat GluN2C (GenBank: M91563.1) and GluN2D subunits (GenBank: L31611.1) were in prK5 plasmids.
The expression of recombinant GluA1, GluA2(Q), and GluK2 receptors was obtained by oocyte injection of 50 nL of mRNAs (at 1 μg/μL). mRNAs were generated using the T7 (GluA1 and GluA2) and T3 (GluK2) mMessage mMachine transcription kits (Invitrogen) after cDNA linearization with the SacII restriction enzyme. The injected oocytes were stored in the same conditions as for NMDARs and used 72–96 h postinjection.
TEVC recordings were performed 1–3 days following injection. TEVC recordings were performed using an Oocyte Clamp amplifier OC-725 (Warner Instruments) and computer-controlled via a 1440A Digidata (Molecular Devices). Currents were sampled at 100 Hz and low-pass-filtered at 20 Hz using an 8-pole Bessel filter (900 Series, Frequency Devices Inc.). Data were collected with Clampfit 10.3. During the recording, the cells were continuously perfused with external recording Ringer solution at pH 7.3 (in mM: 100 NaCl, 0.3 BaCl2, 5 HEPES, and 2.5 KCl, pH adjustment to 7.3 by the addition of NaOH). The NMDA currents were induced by simultaneous application of L-glutamate and glycine (agonist solution) at saturating concentration (100 μM each), and DTPA (10 μM) to prevent receptor inhibition by ambient zinc (∼20 nM).[83] A control solution (100 μM glycine and 10 μM DTPA in Ringer pH 7.3) was used for washout of drug and test solutions. AMPA and kainate receptor currents were induced in the same conditions as NMDA currents (100 μM glutamate and glycine + 10 μM DTPA). Oocytes expressing GluK2 kainate receptors were treated with concanavalin A ([…], equivalent to 1.1 mg/mL) during 10 min before recording to decrease receptor desensitization. Unless notified, recordings were performed at a holding potential of −60 mV. All experiments were performed at room temperature. […]

T1 sequence (P19490 19-907): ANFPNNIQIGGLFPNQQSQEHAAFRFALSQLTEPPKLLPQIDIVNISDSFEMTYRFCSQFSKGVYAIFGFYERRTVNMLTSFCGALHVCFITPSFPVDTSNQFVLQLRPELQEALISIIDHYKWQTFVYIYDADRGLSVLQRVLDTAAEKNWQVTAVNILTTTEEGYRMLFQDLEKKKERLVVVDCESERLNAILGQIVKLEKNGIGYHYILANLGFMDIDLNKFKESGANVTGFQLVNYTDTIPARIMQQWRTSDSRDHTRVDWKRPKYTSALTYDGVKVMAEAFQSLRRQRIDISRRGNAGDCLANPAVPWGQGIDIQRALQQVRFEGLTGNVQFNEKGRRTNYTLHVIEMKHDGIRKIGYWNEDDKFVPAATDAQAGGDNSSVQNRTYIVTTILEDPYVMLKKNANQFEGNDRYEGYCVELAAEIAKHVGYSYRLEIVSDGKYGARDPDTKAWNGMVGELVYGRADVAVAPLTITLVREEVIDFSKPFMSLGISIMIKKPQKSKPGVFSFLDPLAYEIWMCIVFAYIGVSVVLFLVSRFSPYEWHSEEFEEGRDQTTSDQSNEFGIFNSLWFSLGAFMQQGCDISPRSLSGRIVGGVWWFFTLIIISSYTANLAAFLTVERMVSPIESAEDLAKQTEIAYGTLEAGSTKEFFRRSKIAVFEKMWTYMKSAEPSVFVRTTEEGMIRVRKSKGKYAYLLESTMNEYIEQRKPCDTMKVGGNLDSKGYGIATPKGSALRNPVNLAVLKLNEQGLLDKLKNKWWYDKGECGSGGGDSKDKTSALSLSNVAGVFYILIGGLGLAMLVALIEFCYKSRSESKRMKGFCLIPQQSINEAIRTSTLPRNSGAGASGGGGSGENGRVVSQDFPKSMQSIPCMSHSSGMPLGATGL

c1ccc(/N=N/c2ccc(CCNc3ccncc3)cc2)cc1 [OptoNAM-3, (E)-N-(4-(Phenyldiazenyl)phenethyl)pyridin-4-amine]
inhibition at 10 µM (10 µM OptoNAM-3 365 nm PSS, construct GluA1, read-out: Inhibition (%)): -6%
Inhibition, individual values (10 µM OptoNAM-3 dark PSS (trans) as headed, second block): -0.02846 and -0.1048 and -0.04691
Inhibition, individual values (10 µM OptoNAM-3 dark PSS (trans), first block): -0.02273 and -0.0986 and -0.1111
inhibition at 10 µM (10 µM OptoNAM-3 dark PSS (trans), construct GluA1, read-out: Inhibition (%)): -7.7%
inhibition of GluA1 currents (10 µM, dark PSS): no effect
inhibition at 10 µM (10 µM, dark PSS, read-out: inhibition of GluA1 currents): -7.4 ± 2.7%
